{"source": "patent US20150202311A1", "about": "“Collagen-peptide complex” (Q'SAI CO., LTD., priority 2013, published 2015)", "key": {"[1]": {"tested_on": "collagen peptide", "test": "Coprecipitation of black tea components with collagen peptide, reverse-phase chromatography", "format": "binding, pig", "conditions": "black tea A 200 ml + collagen peptide 5 g, FIG. 7B", "protocol": "(§1) Collagen peptide (dry powder of the pig skin-derived collagen hydrolysate, the average molecular weight: 3000-5000, manufactured by Nippi, Inc.) was dissolved in water so that the specified concentration is achieved.\nTo black tea A (200 ml), collagen peptide (5 g) was added and mixed; the supernatant and precipitate were separated by centrifuging (10,000×g, for 10 minutes) (Example 6). To determine the components, of the black tea A before the addition of the collagen peptide (FIG. 7A), the supernatant after centrifuging (FIG. 7B), and the precipitate solubilized with SDS (FIG. 7C), were analyzed by reverse-phase chromatography (column: Cosmosil 5C18-AR-II (manufactured by Nacalai Tesque, Inc.), mobile phase: 0.1% formic acid-containing acetonitrile, detection: 215 nm, 280 nm), respectively."}, "[2]": {"tested_on": "collagen peptide", "test": "Complex formability of theaflavins and epicatechin with collagen peptide (total Hyp in supernatant / complex)", "format": "binding, pig", "conditions": "catechin 0.2 μmol in 1 ml", "protocol": "as §1\nA supernatant was obtained by adding the triple volume (v/v) of ethanol to the aqueous solution and centrifuging (10,000×g, 15 min). The supernatant was hydrolyzed with hydrochloric acid (under reduced pressure, 150° C., and 1 hour). After the PITC treatment, the amount of PTC-Hyp (=the total amount of Hyp in the solution) was determined by carrying out reverse-phase chromatography (column: LiChroCART 250-4 (manufactured by Merck)). The amount of PTC-Hyp (=the amount of free Hyp) was determined by carrying out the PITC treatment/reverse-phase chromatography for the supernatant without hydrochloric acid hydrolysis.\nThe respective aqueous solutions of theaflavins and epicatechin (1 mg/ml) and collagen peptide aqueous solution (200 mg/ml) were prepared, and they were raised at room temperature so that the below-described contents are attained. In the test examples of the present patent application, the following reagents were used.\nAfter mixing, the supernatant and precipitate were separated by centrifuging (8,000×g, […]). According to Method 4, the total amount of Hyp was determined for the supernatant (=“the total amount of Hyp in the supernatant”). “The total amount of Hyp in the complex” was calculated by subtracting “the total amount of Hyp in the supernatant” from the amount of collagen peptide used in the above reaction (2 mg or 10 mg)."}}}
{"compound": "O=C(O[C@@H]1Cc2c(O)cc(O)cc2O[C@@H]1c1ccc(O)c(O)c1)c1cc(O)c(O)c(O)c1", "note": "[epicatechin gallate]", "values": [{"measurement": "fate of black tea component in the supernatant after mixing with collagen peptide and centrifuging", "setting": "[1]", "result": "remained mostly in the supernatant"}]}
{"compound": "theaflavin-3′-gallate [Example 10]", "values": [{"measurement": "fate of black tea component in the supernatant after mixing with collagen peptide and centrifuging", "setting": "[1]", "result": "disappeared from the supernatant"}, {"measurement": "Total Hyp in the complex (%)", "setting": "[2]; Collagen peptide 2 mg", "result": 97.7, "unit": "%"}, {"measurement": "Total Hyp in the supernatant (%)", "setting": "[2]; Collagen peptide 2 mg", "result": 2.3, "unit": "%"}, {"measurement": "Total Hyp in the complex (%)", "setting": "[2]; Collagen peptide 10 mg", "result": 90.5, "unit": "%"}, {"measurement": "Total Hyp in the supernatant (%)", "setting": "[2]; Collagen peptide 10 mg", "result": 9.5, "unit": "%"}]}
{"compound": "O=C(O[C@@H]1Cc2c(O)cc(O)cc2O[C@@H]1c1cc(O)c(O)c(O)c1)c1cc(O)c(O)c(O)c1", "note": "[epigallocatechin gallate]", "values": [{"measurement": "fate of black tea component in the supernatant after mixing with collagen peptide and centrifuging", "setting": "[1]", "result": "remained mostly in the supernatant"}]}
{"compound": "O=c1c(O)cc([C@H]2Oc3cc(O)cc(O)c3C[C@H]2O)cc2c([C@H]3Oc4cc(O)cc(O)c4C[C@H]3O)cc(O)c(O)c12", "note": "[Example 8, theaflavin]", "values": [{"measurement": "fate of black tea component in the supernatant after mixing with collagen peptide and centrifuging", "setting": "[1]", "result": "disappeared from the supernatant"}, {"measurement": "Total Hyp in the complex (%)", "setting": "[2]; Collagen peptide 2 mg", "result": 86.5, "unit": "%"}, {"measurement": "Total Hyp in the supernatant (%)", "setting": "[2]; Collagen peptide 2 mg", "result": 13.5, "unit": "%"}, {"measurement": "Total Hyp in the complex (%)", "setting": "[2]; Collagen peptide 10 mg", "result": 83.8, "unit": "%"}, {"measurement": "Total Hyp in the supernatant (%)", "setting": "[2]; Collagen peptide 10 mg", "result": 16.2, "unit": "%"}]}
{"compound": "theaflavin-3,3′-digallate [Example 11]", "values": [{"measurement": "fate of black tea component in the supernatant after mixing with collagen peptide and centrifuging", "setting": "[1]", "result": "disappeared from the supernatant"}, {"measurement": "Total Hyp in the complex (%)", "setting": "[2]; Collagen peptide 2 mg", "result": 98.0, "unit": "%"}, {"measurement": "Total Hyp in the supernatant (%)", "setting": "[2]; Collagen peptide 2 mg", "result": 2.0, "unit": "%"}, {"measurement": "Total Hyp in the complex (%)", "setting": "[2]; Collagen peptide 10 mg", "result": 97.8, "unit": "%"}, {"measurement": "Total Hyp in the supernatant (%)", "setting": "[2]; Collagen peptide 10 mg", "result": 2.2, "unit": "%"}]}
{"compound": "Cn1c(=O)c2c(ncn2C)n(C)c1=O", "note": "[caffeine]", "values": [{"measurement": "fate of black tea component in the supernatant after mixing with collagen peptide and centrifuging", "setting": "[1]", "result": "remained mostly in the supernatant"}]}
{"compound": "O=C(O[C@@H]1Cc2c(O)cc(O)cc2O[C@@H]1c1cc(=O)c(O)c2c(O)c(O)cc([C@H]3Oc4cc(O)cc(O)c4C[C@H]3O)c2c1)c1cc(O)c(O)c(O)c1", "note": "[Example 9, theaflavin-3-gallate]", "values": [{"measurement": "fate of black tea component in the supernatant after mixing with collagen peptide and centrifuging", "setting": "[1]", "result": "disappeared from the supernatant"}, {"measurement": "Total Hyp in the complex (%)", "setting": "[2]; Collagen peptide 2 mg", "result": 87.0, "unit": "%"}, {"measurement": "Total Hyp in the supernatant (%)", "setting": "[2]; Collagen peptide 2 mg", "result": 13.0, "unit": "%"}, {"measurement": "Total Hyp in the complex (%)", "setting": "[2]; Collagen peptide 10 mg", "result": 86.6, "unit": "%"}, {"measurement": "Total Hyp in the supernatant (%)", "setting": "[2]; Collagen peptide 10 mg", "result": 13.4, "unit": "%"}]}
